From patent US5100875A, “Novel peptides having plateler aggregation inhibitory activity” (Institut National de la Sante et de la Recherche Medicale …, priority 1986, dated 1992)
pIC50: −log10 of the molar value. Residues, ends and D or L forms follow the SMILES beside them.

What was measured:
[1] = target: T1, platelet fibrinogen receptor (Homo sapiens, UniProt P05106+P08514); assay: Inhibition of platelet-fibrinogen binding (125I-fibrinogen, ADP-stimulated washed platelets); conditions: 4×10^7 human platelets, 125I-fibrinogen 0.1×10^-6 M, ADP 5×10^-6 M, CaCl2 0.5 mM, 15 mn incubation
T1 construct: endogenous in cells; host or cells: washed human blood platelets, stimulated with ADP
Procedure: The platelets were isolated from 60 ml of human blood collected in the anticoagulant buffer ACD in a ratio of 1 volume of ACD to 6 volumes of blood.
The blood is then centrifuged for 20 mn at a 1,000 r/mn (JOUAN E 96 centrifuge) at room temperature.
The PRP (plasma rich in platelets) is decanted and treated with 0.1 μM PGE1, then centrifuged for 15 mn at 2,000 r/mn.
The platelets obtained in the pellet are then taken up in 1 ml of Tyrode buffer-albumin, pH 7.2, prepared with the following composition:
The platelets are washed on a column of Sepharose CL 2B using Tyrode buffer-albumin, pH 7.2, then the platelets are recovered and diluted to a concentration of 2×10^8 platelets/ml.
The assays are carried out on 4×10^7 platelets in the presence of CaCl2 (0.5 mM), ^125 I-fibrinogen 0.1×10^-6 M) and different concentrations of peptide, and the stimulation of the platelets is induced by ADP (5×10^-6 M). After incubation for 15 mn and deposition on a 15% saccharose solution the ^125 I-fibrinogen-plateletcomplex is isolated by centrifugation at 12,000 r/mn for 2 mn.
This table also presents the sequence of the peptides.

platelets = assay: Inhibition of platelet aggregation (ADP-induced, washed platelets with fibrinogen); format: cell-based; conditions: isolated human platelets, ADP 5×10^-6 M, fibrinogen 1.1×10^-6 M
Procedure: The effect of the synthetic peptides on platelet aggregation was studied on platelets isolated as previously described for the study of the binding to fibrinogen. The stimulation of the platelets was also brought about by 5×10^-6 M ADP and the assay was carried out in the presence of 1.1×10^-6 M fibrinogen and of […] CaCl2.

T1 sequence (P08514 32-887 limits assumed): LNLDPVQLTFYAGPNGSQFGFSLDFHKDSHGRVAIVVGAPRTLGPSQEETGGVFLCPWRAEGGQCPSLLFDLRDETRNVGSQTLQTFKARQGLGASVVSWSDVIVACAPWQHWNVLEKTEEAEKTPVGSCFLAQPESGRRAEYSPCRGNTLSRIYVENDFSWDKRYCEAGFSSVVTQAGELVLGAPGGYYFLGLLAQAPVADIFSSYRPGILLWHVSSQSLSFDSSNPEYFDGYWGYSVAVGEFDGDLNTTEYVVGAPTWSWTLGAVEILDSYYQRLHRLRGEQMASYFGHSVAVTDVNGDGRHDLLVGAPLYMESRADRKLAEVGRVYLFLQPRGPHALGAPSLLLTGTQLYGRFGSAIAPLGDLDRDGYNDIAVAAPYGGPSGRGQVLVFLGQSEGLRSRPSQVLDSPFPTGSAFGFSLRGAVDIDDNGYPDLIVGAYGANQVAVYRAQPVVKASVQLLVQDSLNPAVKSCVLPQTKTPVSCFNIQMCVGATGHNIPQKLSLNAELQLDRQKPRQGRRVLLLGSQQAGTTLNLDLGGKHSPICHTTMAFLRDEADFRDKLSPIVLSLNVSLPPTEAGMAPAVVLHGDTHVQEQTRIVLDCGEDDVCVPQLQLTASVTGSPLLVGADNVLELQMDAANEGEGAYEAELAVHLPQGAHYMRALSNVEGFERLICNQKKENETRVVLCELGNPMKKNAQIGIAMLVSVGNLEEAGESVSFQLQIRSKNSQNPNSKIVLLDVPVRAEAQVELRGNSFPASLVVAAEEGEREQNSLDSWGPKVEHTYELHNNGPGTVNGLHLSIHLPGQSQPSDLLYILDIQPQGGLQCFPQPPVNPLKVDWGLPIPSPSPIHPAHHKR
T1 sequence (P08514 891-1039 partner limits assumed): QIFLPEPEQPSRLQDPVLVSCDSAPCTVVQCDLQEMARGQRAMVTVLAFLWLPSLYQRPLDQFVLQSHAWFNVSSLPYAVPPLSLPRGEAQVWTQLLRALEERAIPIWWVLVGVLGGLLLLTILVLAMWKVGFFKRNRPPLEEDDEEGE
T1 sequence (P05106 27-788): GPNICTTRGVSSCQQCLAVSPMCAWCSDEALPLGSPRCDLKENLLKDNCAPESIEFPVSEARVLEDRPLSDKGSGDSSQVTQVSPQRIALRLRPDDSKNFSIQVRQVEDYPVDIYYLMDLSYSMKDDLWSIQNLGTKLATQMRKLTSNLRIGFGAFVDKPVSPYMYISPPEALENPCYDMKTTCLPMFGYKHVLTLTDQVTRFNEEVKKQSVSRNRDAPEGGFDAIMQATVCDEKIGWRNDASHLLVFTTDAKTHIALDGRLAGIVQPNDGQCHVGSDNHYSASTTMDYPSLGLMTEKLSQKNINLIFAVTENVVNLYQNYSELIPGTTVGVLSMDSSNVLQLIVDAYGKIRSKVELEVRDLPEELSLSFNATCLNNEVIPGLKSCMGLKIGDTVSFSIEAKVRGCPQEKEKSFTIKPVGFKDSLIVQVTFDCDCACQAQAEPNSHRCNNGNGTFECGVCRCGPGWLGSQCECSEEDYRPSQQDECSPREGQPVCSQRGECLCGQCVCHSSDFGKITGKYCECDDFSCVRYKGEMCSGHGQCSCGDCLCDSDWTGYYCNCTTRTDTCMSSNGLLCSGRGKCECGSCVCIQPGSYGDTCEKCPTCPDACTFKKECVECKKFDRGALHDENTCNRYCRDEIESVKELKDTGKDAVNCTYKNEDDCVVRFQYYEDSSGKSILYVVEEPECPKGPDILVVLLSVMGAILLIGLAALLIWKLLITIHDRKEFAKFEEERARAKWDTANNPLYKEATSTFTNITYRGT

| pIC50 [1] | pIC50 (platelets) | Compound |
| --- | --- | --- |
| 5.15 | 4.82 | N=C(N)NCCC[C@H](N)C(=O)NCC(=O)N[C@@H](CC(=O)O)C(=O)N[C@@H](Cc1ccccc1)C(=O)O [RGDF, H-Arg-Gly-Asp-Phe-OH] (H-RGDF-OH) |
| 4.70 | 4.70 | H-LRGDF-OH [LRGDF, H-Leu-Arg-Gly-Asp-Phe-OH] |
| 5.44 |  | NC(N)=NCCC[C@H](N)C(=O)NCC(=O)N[C@@H](CC(=O)O)C(=O)N[C@@H](Cc1c[nH]c2ccccc12)C(=O)O [RGDW, H-Arg-Gly-Asp-Trp-OH] (H-RGDW-OH) |
|  | 5.00 | N=C(N)NCCC[C@H](N)C(=O)NCC(=O)N[C@@H](CC(=O)O)C(=O)N[C@@H](Cc1c[nH]c2ccccc12)C(=O)O [RGDW, H-Arg-Gly-Asp-Trp-OH] (H-RGDW-OH) |
